Laboratory results from patent publication US20250222017A1, “METHODS OF USING AVERMECTIN COMPOSITIONS FOR THE TREATMENT OF NEUROLOGICAL DISORDERS AND DOSING REGIMENS” (priority 2022, published 2025).
Entries after “also recorded” stand apart in the source; their conditions may differ. Where two headings read alike, the source gives them in different places.

Assays:
human CD4+ T cells = assay: Human CD4+ T cells activated under Th17 skewing conditions, in vitro; assay type: cell-based; conditions: data not shown
spasms = assay: Two-stage model of infantile spasms (NMDA-induced); assay type: in vivo, Sprague-Dawley rats; conditions: spasms triggered on P15, rats
Excerpt: A two-stage model of infantile spasms was developed (FIG. 19A). Pregnant Sprague-Dawley rats receive two injections of betamethasone on gestational (G) day 15. Offspring of those pregnancies are used for experiments during infancy, postnatal days (P) 10-15. Spasms are induced by i.p. injection of N-methyl-D-aspartic acid (NMDA), which is graded depending on the postnatal age of the subjects.
Days of dosing were P10, P11, P12, P13, P14 and P15.

EAE = assay: Experimental autoimmune encephalomyelitis (EAE) model of MS; assay type: in vivo; conditions: EAE in C57BL/6 mice; 1, 2, 4 mg/kg oral once daily, Day 14 to Day 34
Experimental: EAE is induced in C57BL/6 mice by immunization with MOG35-55 or MOG1-12s in CFA emulsion followed by administration of pertussis toxin (PTX) in PBS. […] Fingolimod (FTY720, Gilenya) is the most commonly used positive control in this model.
Vehicle was 1.6% DMSO in water. […] These were frozen at −20° C. Every 3 to 4 days, one aliquot was thawed and diluted with water to create a fine suspension at 0.8 mg/mL (for 4 mg/kg dosing). Final DMSO concentration was 1.6%. […] FTY720 stock solution (30 mg/mL in ethanol) was prepared for all ongoing studies. Daily, the FTY720 stock solution was diluted with water to the final dosing concentration of 0.6 mg/mL.
EAE was induced on Day 0 by myelin oligodendrocyte glycoprotein (MOG35-55)/complete Freund's adjuvant (CFA) immunization, followed by pertussis toxin (PTX) injections on Days O and 1. Treatment was therapeutic, starting on Day 14. […] Treatment continued through Day 34. Mice were observed through the end of the study, Day 35.
Clinical scores were assessed as follows: 1=limp tail, 2=partial hind leg paralysis, 3=complete hind leg paralysis, 4=complete hindleg and partial front leg paralysis; 5=moribund.

[1] = system: pentylenetetrazol (PTZ)-induced ictal brain activity; assay: Modulation of PTZ-induced seizures, BOLD fMRI; assay type: in vivo, male Wistar rats; conditions: positive control, Wistar rats
Experimental: Functional MRI (fMRI) was performed using a high-field preclinical MRI system in anesthetized male Wistar rats in order to determine the modulation of pentylenetetrazol (PTZ)-induced ictal brain activity by chronic treatment with test compound (TC). […] Vehicle and 3 mg/kg Alprazolam served as controls (see, Table 11). Seizures were induced with PTZ in each experimental group. A schematic of the study design can be seen in FIG. 6. Various physiological parameters were also measured throughout the experiment including body weight, CO2 levels, blood pH, and heart rate. […] Vehicle and 3 mg/kg Alprazolam served as controls (see, Table 12).

focal seizures = conditions: cited from earlier work

ivermectin
FoxP3 mRNA levels (human CD4+ T cells): up-regulation | increase in the percentage of Foxp3+ T cells (human CD4+ T cells): 50% | occurrence of spasms in comparison to controls (vehicle) (spasms; 2 mg/kg i.p. daily P10-P15): significantly suppressed occurrence of spasms; also recorded: significantly fewer spasms | occurrence of spasms in comparison to controls (vehicle) (spasms; 4 mg/kg i.p. daily P10-P15): significantly suppressed occurrence of spasms; also recorded: significantly fewer spasms | limb paralysis (clinical score) (EAE): significantly downregulates

Cc1nnc2n1-c1ccc(Cl)cc1C(c1ccccc1)=NC2 [Alprazolam]
PTZ-induced brain activity (BOLD fMRI) ([1]; 3 mg/kg i.p., 1 dose, 3 mg/kg): effectively cancelled PTZ-induced brain activity; also recorded: Vehicle vs. Alprazolam in all

CN1C(=O)CN=C(c2ccccc2)c2cc(Cl)ccc21 [Diazepam]
PTZ-induced brain activity (BOLD fMRI) ([1]; dose not given): effectively cancelled PTZ-induced brain activity

Cc1cc(N2CCc3cc(F)ccc3C2)cc(C)c1NC(=O)CC(C)(C)C [XEN1101]
Placebo-adjusted >50% Focal Seizure Reduction (focal seizures; 25 mg): 40% | Placebo-adjusted Median Reduction in Focal Seizure Frequency (focal seizures; 25 mg): 35%

NC(=O)N1c2ccccc2C[C@H](O)c2ccccc21 [APTIOM, Eslicarbazepine]
Placebo-adjusted >50% Focal Seizure Reduction (focal seizures; 1200 mg): 20% | Placebo-adjusted Median Reduction in Focal Seizure Frequency (focal seizures; 2000 mg): 14-24%

NC(=O)O[C@@H](Cn1ncnn1)c1ccccc1Cl [XCOPRI, Cenobamate]
Placebo-adjusted >50% Focal Seizure Reduction (focal seizures; 400 mg): 39% | Placebo-adjusted Median Reduction in Focal Seizure Frequency (focal seizures; 4200 mg): 31%

CC[C@@H](C(N)=O)N1CCCC1=O [KEPPRA, Leviteracetam]
Placebo-adjusted >50% Focal Seizure Reduction (focal seizures; 3000 mg): 29% | Placebo-adjusted Median Reduction in Focal Seizure Frequency (focal seizures; 3000 mg): 23-31%

CCC[C@@H]1CC(=O)N([C@@H](CC)C(N)=O)C1 [BRIVIACT, Brivaracetam]
Placebo-adjusted >50% Focal Seizure Reduction (focal seizures; 200 mg): 18% | Placebo-adjusted Median Reduction in Focal Seizure Frequency (focal seizures; 200 mg): 26%

COC[C@@H](NC(C)=O)C(=O)NCc1ccccc1 [VIMPAT, Lacosamide]
Placebo-adjusted >50% Focal Seizure Reduction (focal seizures; 400 mg): 17% | Placebo-adjusted Median Reduction in Focal Seizure Frequency (focal seizures; 400 mg): 15-29%
